According to PMC7333658, “Identification and Quantification of Novel Major Metabolites of the Steroidal Aromatase Inhibitor, Exemestane” (Drug Metabolism and Disposition, 2018):
Where “and” joins values, the source holds several entries; their conditions need not be identical. Identical values can stand only once.

Tests used:
[1] = in vivo; cited from earlier work
[2] = UPLC-MS/MS quantification of EXE and its metabolites in plasma of subjects taking EXE; assay type: in vivo, human; conditions: for Plasma Percentage of TEM (Mean ± S.E.): TEM = EXE + 17β-DHE + 17β-DHE-Gluc + 6-EXE-cys + 6-DHE-cys, calculated per subject, then mean of 132; for Plasma concentration, Mean ± S.E. / Plasma concentration, Range: n = 132 subjects; for Plasma concentration, Mean ± S.E.: 25 mg EXE daily orally for at least 28 days, sampled 4-6 hours after pill; for Plasma concentration, Range: 25 mg EXE daily orally, 4-6 hours after pill
Experimental: (§1) One hundred and thirty-two postmenopausal breast cancer patients (one Hispanic, two African Americans, two Asians, and 127 Caucasians; age range: 35–89 years) with ER+ breast tumors were recruited into this study from the Breast Oncology Clinic at the Penn State Hershey Cancer Institute. Approval was obtained from the Institutional Review Board at Penn State University with informed consent obtained from all subjects. Subjects took a single pill (25 mg) of EXE daily (orally) for at least 28 consecutive days and provided blood (10 ml) and urine (up to 50 ml) specimens between 4 and 6 hours after pill ingestion as described previously ([Luo et al., 2018]). Blood was separated by centrifugation at 1300g for 15 minutes at room temperature. Aliquoted plasma and buffy coat fractions of blood samples and aliquoted urine samples were stored at −80°C until analysis. As a control for EXE metabolism, specimens obtained from women not taking EXE who were recruited into other studies at Penn State University College of Medicine (Hershey, PA; n = 10) were also examined to exclude false positives ([Ashmore et al., 2013]).
To quantify in vivo levels of EXE and its metabolites, the sample preparation method was modified from that described earlier for metabolite identification. For EXE metabolite analysis in plasma, a 2.5-µl aliquot of each plasma sample was first spiked with 2.5 µl of a mixture of deuterium-labeled internal standards in methanol [D3-EXE (0.17 μM), D3-17β-DHE (1.7 μM), 17β-OH-EXE-d3-17-O-β-D-glucuronide (0.52 μM), D3-6-EXE-cys (0.06 μM), and D3-6-17β-DHE-cys (0.25 μM)]. Twenty microliters of pure methanol was then added to extract EXE and its metabolites and to precipitate proteins. After vortexing and subsequent centrifugation at 16,100g for 10 minutes at 4°C, 15 µl of the supernatant was transferred to a sample vial and mixed with 15 µl of water prior to analysis by UPLC-MS.
(§2) For the simultaneous quantification of EXE, 17β-DHE, 17β-DHE-Gluc, 6-EXE-cys, and 6-17β-DHE-cys, urine and plasma samples were prepared as described earlier. Using the same UPLC-MS system described earlier, UPLC was performed with solvent A (5 mM ammonium formate and 0.01% formic acid in water) and solvent B (100% acetonitrile) using the following conditions for both urine and plasma specimens: 0–1.5 minutes at 25% solvent B, a linear gradient to 52% solvent B for 1.5–2.5 minutes, 2.5–4.5 minutes at 52% solvent B, a linear gradient to 95% solvent B from 4.5 to 5 minutes, 5–9.5 minutes at 95% solvent B, followed by a linear gradient to initial conditions of 25% solvent B from 9.5 to 10 minutes. This was followed by a 1-minute run at 25% solvent B to equilibrate the column to initial conditions before the next sample injection. The flow rate was 0.4 ml/min from 0 to 5 minutes, 0.8 ml/min from 5 to 9.5 minutes, and back to 0.4 ml/min from 9.5 to 10 minutes. The injection volume of each prepared urine and plasma sample was 5 µl. The column temperature was 35°C. The Waters XEVO G2-S QTOF MS was operated in tandem mass spectrometry (MS/MS) mode, with the electrospray ionization probe operated in the positive-ion mode and a capillary voltage at 0.6 kV. The cone and desolvation gas flow rates were maintained at 50 and 800 l/h, respectively, and the collision gas flow rate was 0.1 l/h. The source and desolvation gas temperatures were 120°C and 500°C, respectively, and the dwell time for each ion was 300 ms.
(§3) The limits of quantification for EXE, 17β-DHE, 17β-DHE-Gluc, 6-EXE-cys, and 6-17β-DHE-cys were 2.1, 1.6, 1.2, 0.7, and 7.2 nM in plasma, respectively, and 2.1, 1.6, 6.3, 1.5, and 7.2 nM in urine, respectively. Standard curves were constructed by plotting the ratio of analyte peak area to peak area of the corresponding internal standard (described earlier) versus concentration of analyte standard. The concentrations of stock standards were 1000 ppm. […]

[3] = UPLC-MS/MS quantification of EXE and its metabolites in urine of subjects taking EXE; assay type: in vivo, human; conditions: for Urine Percentage of TEM (Mean ± S.E.): TEM = EXE + 17β-DHE + 17β-DHE-Gluc + 6-EXE-cys + 6-DHE-cys, calculated per subject, then mean of 132; for Urine concentration, Mean ± S.E. / Urine concentration, Range: n = 132 subjects; for Urine concentration, Mean ± S.E.: 25 mg EXE daily orally for at least 28 days, sampled 4-6 hours after pill; for Urine concentration, Range: 25 mg EXE daily orally, 4-6 hours after pill
Experimental: as §1
For EXE metabolite analysis in urine, a 2.5-µl aliquot of each urine sample was first spiked with 2.5 µl of the same deuterium-labeled internal standard mixture described earlier. Ten microliters of 75% methanol was then added to extract EXE and its metabolites. After vortexing and subsequent centrifugation at 16,100g for 10 minutes at 4°C, 10 µl of the supernatant was transferred to a sample vial and mixed with 5 µl of water prior to analysis by UPLC-MS.
as §2
as §3, with “ppm. A serial dilution of standards at concentrations ranging from 1.6 nM to 1.7 μM, 1.6 nM to 1.7 μM, 1.0 nM to 2.1 μM, 0.7 nM to 12 μM, and 4.6 nM to 2.4 μM was used to establish standard curves for EXE, 17β-DHE, 17β-DHE-Gluc, 6-EXE-cys, and 6-17β-DHE-cys, respectively.” for “ppm.”

[4] = ref Luo et al., 2018, cited from earlier work

SMILES | Plasma Percentage of TEM (Mean ± S.E.) ([2]; plasma) | Plasma concentration, Mean ± S.E. ([2]; plasma) | Plasma concentration, Range ([2]; plasma) [nM] | Urine Percentage of TEM (Mean ± S.E.) ([3]; urine) | Urine concentration, Mean ± S.E. ([3]; urine) | Urine concentration, Range ([3]; urine) | Urine concentration range as printed in the discussion ([3]; female, human, in vivo) [pM] | other results
CSc1ncnc2c1ncn2[C@@H]1O[C@H](CO)[C@@H](O)[C@H]1O [6-methylmercaptopurine riboside] |  |  |  |  |  |  |  | Fold lower levels in GSTM1-null genotype than in carriers of one or two copies of GSTM1 [1]: 2 fold
C=C1C[C@H]2[C@@H]3CC[C@H](O[C@@H]4O[C@H](C(=O)O)[C@@H](O)[C@H](O)[C@H]4O)[C@@]3(C)CC[C@@H]2[C@@]2(C)C=CC(=O)C=C12 [17β-DHE-Gluc, 17β-hydroxy-EXE-17-O-β-D-glucuronide] | 36% and 36 ± 1.8% | 30 nM and 30 ± 4.6 nM | 0.32 to 358 | 21% and 21 ± 1.6% | 1.4 nmol/mg creatinine and 1.4 ± 0.37 nmol/mg creatinine | 0.0068–45 nmol/mg creatinine |  | Ratio of mean combined cysteine conjugates (6-EXE-cys plus 6-17β-DHE-cys) to 17β-DHE-Gluc in urine ([3]; urine, 17β-DHE-Gluc is the lower): 5.5 fold; Decrease in plasma level with increasing numbers of the UGT2B17 deletion allele ([4]; women taking EXE): up to 29 fold
C=C1C[C@@H]2[C@H](CC[C@]3(C)C(=O)CC[C@@H]23)[C@@]2(C)C=CC(=O)C=C12 [EXE, Exemestane] | 17% and 17 ± 0.91% | 14 nM and 14 ± 1.7 nM | 0 to 105 | 1.7% and 1.7 ± 0.20% | 0.21 ± 0.045 nmol/mg creatinine | 0–3.2 nmol/mg creatinine |  | 
C=C1CC2C(CCC3(C)C(O)CCC23)C2(C)C=CC(=O)C=C12 (stereo not drawn) [17β-DHE, 17β-dihydro-EXE] | 12% and 12 ± 1.2% | 2.5 nM and 2.5 ± 0.19 nM | 0.11 to 14 | 0.14% and 0.14 ± 0.025% | 0.0066 nmol/mg creatinine and 0.0066 ± 0.0012 nmol/mg creatinine | 0–0.099 nmol/mg creatinine |  | Fold lower average percentage of TEM than 17β-DHE-Gluc ([2]; plasma): 3 fold; Increase in plasma level with increasing numbers of the UGT2B17 deletion allele ([4]; same women taking EXE): 1.3 fold
C[C@]12C=CC(=O)C=C1C(CSC[C@H](N)C(=O)O)C[C@@H]1[C@@H]2CC[C@]2(C)C(=O)CC[C@@H]12 (single isomer, unassigned) [6-EXE-cys, 6-methylcysteinylandrosta-1,4-diene-3,17-dione] |  |  |  |  |  |  | 3.3 to 50000 | Share of the total mean cysteine conjugate levels in plasma ([2]; female, human, in vivo): 79%; Share of the total mean cysteine conjugate levels in urine ([3]; female, human, in vivo): 77%
C[C@]12CC[C@H]3[C@@H](CC(CSC[C@H](N)C(=O)O)C4=CC(=O)C=C[C@@]43C)[C@@H]1CC[C@@H]2O (stereo partly drawn) [6-17β-DHE-cys, 6-methylcysteinylandrosta-1,4-diene-17β-hydroxy-3-one] |  |  |  |  |  |  | 3.3 to 10000 | 
